Measurements published in the supplement of paper PMC13380429.

Experiments:
Settings in all cases: 72 h
Caco-2 [1] = test: cell viability relative to DMSO; higher = less toxic
Calu-3 [2] = test: as above
HepG2 [3] = test: as above
U2OS [4] = test: as above
Caco-2 [5] = test: relative viability EC50 (midpoint between 100% and the lowest measured viability); higher = less toxic
Calu-3 [6] = test: as above
HepG2 [7] = test: as above
U2OS [8] = test: as above
Caco-2 [9] = test: drug sensitivity score (DSS) for viability; higher = more toxic; extreme values may be limits of the assay
Calu-3 [10] = test: as above
HepG2 [11] = test: as above
U2OS [12] = test: as above
Vero E6 [13] = test: cell viability relative to DMSO; higher = less toxic
Vero E6 [14] = test: relative viability EC50 (midpoint between 100% and the lowest measured viability); higher = less toxic
Vero E6 [15] = test: drug sensitivity score (DSS) for viability; higher = more toxic; extreme values may be limits of the assay

Compound	cell viability (Caco-2 [1]; 1 nM) [%]	cell viability (Caco-2 [1]; 10 nM) [%]	cell viability (Caco-2 [1]; 100 nM) [%]	cell viability (Caco-2 [1]; 1000 nM) [%]	cell viability (Caco-2 [1]; 10000 nM) [%]	cell viability (Calu-3 [2]; 1 nM) [%]	cell viability (Calu-3 [2]; 10 nM) [%]	cell viability (Calu-3 [2]; 100 nM) [%]	cell viability (Calu-3 [2]; 1000 nM) [%]	cell viability (Calu-3 [2]; 10000 nM) [%]	cell viability (HepG2 [3]; 1 nM) [%]	cell viability (HepG2 [3]; 10 nM) [%]	cell viability (HepG2 [3]; 100 nM) [%]	cell viability (HepG2 [3]; 1000 nM) [%]	cell viability (HepG2 [3]; 10000 nM) [%]	cell viability (U2OS [4]; 1 nM) [%]	cell viability (U2OS [4]; 10 nM) [%]	cell viability (U2OS [4]; 100 nM) [%]	cell viability (U2OS [4]; 1000 nM) [%]	cell viability (U2OS [4]; 10000 nM) [%]	relative viability EC50 (Caco-2 [5]) [µM]	relative viability EC50 (Calu-3 [6]) [µM]	relative viability EC50 (HepG2 [7]) [µM]	relative viability EC50 (U2OS [8]) [µM]	drug sensitivity score (Caco-2 [9])	drug sensitivity score (Calu-3 [10])	drug sensitivity score (HepG2 [11])	drug sensitivity score (U2OS [12])	cell viability (Vero E6 [13]; 1 nM) [%]	cell viability (Vero E6 [13]; 10 nM) [%]	cell viability (Vero E6 [13]; 100 nM) [%]	cell viability (Vero E6 [13]; 1000 nM) [%]	cell viability (Vero E6 [13]; 10000 nM) [%]	relative viability EC50 (Vero E6 [14]) [µM]	drug sensitivity score (Vero E6 [15])
NCCC[C@H](N)C(=O)O [ornithine]	97.2	94.7	101	101	100	103	95.6	102	102	104	97.3	112	94.7	97.2	91.8	100	93.5	99.1	96.8	104	> 10	> 10	> 10	> 10	0	0	0	0	–	–	–	–	–	–	–
COC(=O)Nc1nc2cc([S+]([O-])c3ccccc3)ccc2[nH]1 (stereo not given) [oxfendazole]	97	108	104	94.7	97.5	–	–	–	–	–	90.6	92.5	98.2	98.1	75.3	101	96.6	103	98.1	103	> 10	–	> 10	> 10	0	–	1.2	0	101	106	100	104	90.6	> 10	0
O=C(CCCCCCC(=O)Nc1cccnc1)NO [pyroxamide]	102	92.9	94.3	91.6	47.6	–	–	–	–	–	106	99.6	98.7	76.8	7.6	102	97.8	101	90	12.6	1.93	–	1.54	2.22	4.2	–	8.7	6.5	99.6	103	96.3	99.9	46	3.14	2.9
O=C(/C=C\n1cnc(-c2cc(C(F)(F)F)cc(C(F)(F)F)c2)n1)NNc1cnccn1 [selinexor]	97	87.9	89	50.4	44.2	104	93.4	66	57	56.4	108	99.2	49.6	31.9	24.5	97.1	89.9	75.8	12.7	7.6	0.248	–	0.0686	0.189	10.4	12.5	19.9	18.8	98.9	102	81.9	42.4	24.3	0.319	12.9
Cc1ccnc(NS(=O)(=O)c2ccc(N)cc2)n1 [sulfamerazine]	97	89.8	92	98.7	98.2	–	–	–	–	–	104	94.1	95.5	109	89.3	102	102	94.3	97.6	100	> 10	–	> 10	> 10	0	–	0	0	104	98.5	97.8	97.8	97.8	> 10	0
O=C(NS(=O)(=O)c1ccc(Br)s1)c1ccc(Cl)cc1Cl [tasisulam]	99.7	104	94.9	101	92	96.2	104	97.6	95.4	100	114	94.2	105	110	107	97.2	98.1	96	101	102	> 10	> 10	> 10	> 10	0	0	0	0	–	–	–	–	–	–	–
NCCCC[C@H](NC(=O)[C@@H]1CCCN1C(=O)[C@@H]1CSSC[C@H](NC(=O)CNC(=O)CNC(=O)CN)C(=O)N[C@@H](Cc2ccc(O)cc2)C(=O)N[C@@H](Cc2ccccc2)C(=O)N[C@@H](CCC(N)=O)C(=O)N[C@@H](CC(N)=O)C(=O)N1)C(=O)NCC(N)=O [terlipressin]	100	96.5	98	100	103	93.9	92	102	95.8	96.4	94.4	105	94.3	97.4	110	–	–	–	–	–	> 10	> 10	> 10	–	0	0	0	–	93.7	100	86.1	91.2	110	> 10	0
NCCNCCNCCN [trientine]	107	106	96.4	94.4	97.6	89	101	99	98.7	99.9	90.9	96.6	92.1	98	92.8	100	99.1	100	97.5	104	> 10	> 10	> 10	> 10	0	0	0	0	–	–	–	–	–	–	–
